# Measurements as given in the supplement of paper PMC10733146.
# How the values were obtained:
# Test in all cases: viability relative to DMSO control (fraction); higher = less drug effect (more viable cells)
# Conditions in all cases: 48 h
# [1] = test system: primary AML patient cells (S021)
# How it was run: (§1)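 Using 384-well plates with compounds already plated at five concentrations, one well per concentration, 4 × 10^4 primary mononuclear tumour cells were added per well. Cells were Ficoll-isolated from blood or bone marrow or came from processed lymph node, fresh or cryopreserved. They were kept for 48 h at 37 °C and 5% CO2 in RPMI-1640 supplemented with penicillin/streptomycin, L-glutamine and human serum, and viability was read as CellTiter-Glo luminescence relative to the median of 16 inner DMSO wells.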
# [2] = test system: primary AML patient cells (S017)
# How it was run: as §1
# [3] = test system: primary AML patient cells (S056)
# How it was run: as §1
# [4] = test system: primary ALL patient cells (S048)
# How it was run: as §1
# [5] = test system: primary AML patient cells (S055)
# How it was run: as §1
# [6] = test system: primary AML patient cells (S002)
# How it was run: as §1
# [7] = test system: primary AML patient cells (S072)
# How it was run: as §1
# [8] = test system: primary FL patient cells (S022)
# How it was run: as §1
# [9] = test system: primary CLL patient cells (S043)
# How it was run: as §1
# [10] = test system: primary MCL patient cells (S068)
# How it was run: as §1
# [11] = test system: primary MCL patient cells (S063)
# How it was run: as §1
# [12] = test system: primary AML patient cells (S025)
# How it was run: as §1
# [13] = test system: primary AML patient cells (S081)
# How it was run: as §1
# [14] = test system: primary T-PLL patient cells (S008)
# How it was run: as §1
# [15] = test system: primary BL patient cells (S005)
# How it was run: as §1
# [16] = test system: primary AML patient cells (S009)
# How it was run: as §1
# [17] = test system: primary AML patient cells (S079)
# How it was run: as §1
# [18] = test system: primary AML patient cells (S012)
# How it was run: as §1
# [19] = test system: primary AML patient cells (S006)
# How it was run: as §1
# [20] = test system: primary MCL patient cells (S053)
# How it was run: as §1
smiles,measurement,setting,value
C[C@@H](Oc1cc(-c2cnn(C3CCNCC3)c2)cnc1N)c1c(Cl)ccc(F)c1Cl [Crizotinib],viability,[1]; 0.024 µM,1.06
same,viability,[1]; 0.12 µM,1.1
same,viability,[1]; 0.6 µM,1.1
same,viability,[1]; 3 µM,0.831
same,viability,[1]; 15 µM,0.345
same,viability,[2]; 0.024 µM,1.03
same,viability,[2]; 0.12 µM,1.03
same,viability,[2]; 0.6 µM,1.02
same,viability,[2]; 3 µM,0.636
same,viability,[2]; 15 µM,0.299
same,viability,[3]; 0.024 µM,1.13
same,viability,[3]; 0.12 µM,0.919
same,viability,[3]; 0.6 µM,1.07
same,viability,[3]; 3 µM,0.857
same,viability,[3]; 15 µM,0.084
same,viability,[4]; 0.024 µM,0.999
same,viability,[4]; 0.12 µM,1.04
same,viability,[4]; 0.6 µM,0.989
same,viability,[4]; 3 µM,0.638
same,viability,[4]; 15 µM,0.0947
same,viability,[5]; 0.024 µM,0.948
same,viability,[5]; 0.12 µM,0.954
same,viability,[5]; 0.6 µM,0.999
same,viability,[5]; 3 µM,0.683
same,viability,[5]; 15 µM,0.524
same,viability,[6]; 0.024 µM,1.04
same,viability,[6]; 0.12 µM,1.08
same,viability,[6]; 0.6 µM,1.01
same,viability,[6]; 3 µM,0.928
same,viability,[6]; 15 µM,0.652
same,viability,[7]; 0.024 µM,0.903
same,viability,[7]; 0.12 µM,0.983
same,viability,[7]; 0.6 µM,0.838
same,viability,[7]; 3 µM,0.602
same,viability,[7]; 15 µM,0.127
same,viability,[8]; 0.024 µM,1.09
same,viability,[8]; 0.12 µM,1.06
same,viability,[8]; 0.6 µM,1.09
same,viability,[8]; 3 µM,0.959
same,viability,[8]; 15 µM,0.377
same,viability,[9]; 0.024 µM,0.95
same,viability,[9]; 0.12 µM,0.977
same,viability,[9]; 0.6 µM,0.949
same,viability,[9]; 3 µM,0.772
same,viability,[9]; 15 µM,0.4
same,viability,[10]; 0.024 µM,0.989
same,viability,[10]; 0.12 µM,1.22
same,viability,[10]; 0.6 µM,1.58
same,viability,[10]; 3 µM,1.72
same,viability,[10]; 15 µM,0.816
same,viability,[11]; 0.024 µM,0.942
same,viability,[11]; 0.12 µM,1.03
same,viability,[11]; 0.6 µM,1
same,viability,[11]; 3 µM,0.896
same,viability,[11]; 15 µM,0.254
same,viability,[12]; 0.024 µM,0.983
same,viability,[12]; 0.12 µM,1.05
same,viability,[12]; 0.6 µM,1.02
same,viability,[12]; 3 µM,0.94
same,viability,[12]; 15 µM,0.794
same,viability,[13]; 0.024 µM,0.9
same,viability,[13]; 0.12 µM,0.922
same,viability,[13]; 0.6 µM,0.895
same,viability,[13]; 3 µM,0.85
same,viability,[13]; 15 µM,0.386
same,viability,[14]; 0.024 µM,0.983
same,viability,[14]; 0.12 µM,1.02
same,viability,[14]; 0.6 µM,0.969
same,viability,[14]; 3 µM,0.955
same,viability,[14]; 15 µM,0.655
same,viability,[15]; 0.024 µM,0.975
same,viability,[15]; 0.12 µM,0.986
same,viability,[15]; 0.6 µM,0.905
same,viability,[15]; 3 µM,0.766
same,viability,[15]; 15 µM,0.309
same,viability,[16]; 0.024 µM,0.984
same,viability,[16]; 0.12 µM,0.895
same,viability,[16]; 0.6 µM,0.761
same,viability,[16]; 3 µM,0.57
same,viability,[16]; 15 µM,0.147
same,viability,[17]; 0.024 µM,0.977
same,viability,[17]; 0.12 µM,0.953
same,viability,[17]; 0.6 µM,0.872
same,viability,[17]; 3 µM,0.659
same,viability,[17]; 15 µM,0.256
same,viability,[18]; 0.024 µM,1
same,viability,[18]; 0.12 µM,1.06
same,viability,[18]; 0.6 µM,0.999
same,viability,[18]; 3 µM,0.992
same,viability,[18]; 15 µM,0.163
same,viability,[19]; 0.024 µM,0.944
same,viability,[19]; 0.12 µM,0.926
same,viability,[19]; 0.6 µM,0.695
same,viability,[19]; 3 µM,0.491
same,viability,[19]; 15 µM,0.18
CC(C)c1cc(C(=O)N2Cc3ccc(CN4CCN(C)CC4)cc3C2)c(O)cc1O [Onalespib],viability,[20]; 0.0032 µM,0.837
same,viability,[20]; 0.016 µM,1.12
same,viability,[20]; 0.08 µM,0.356
same,viability,[20]; 0.4 µM,0.345
same,viability,[20]; 2 µM,0.306
same,viability,[1]; 0.0032 µM,0.874
same,viability,[1]; 0.016 µM,0.716
same,viability,[1]; 0.08 µM,0.466
same,viability,[1]; 0.4 µM,0.523
same,viability,[1]; 2 µM,0.58
same,viability,[2]; 0.0032 µM,0.93
same,viability,[2]; 0.016 µM,1.11
same,viability,[2]; 0.08 µM,0.675
same,viability,[2]; 0.4 µM,0.33
same,viability,[2]; 2 µM,0.281
same,viability,[3]; 0.0032 µM,0.743
same,viability,[3]; 0.016 µM,0.29
same,viability,[3]; 0.08 µM,0.142
same,viability,[3]; 0.4 µM,0.164
same,viability,[3]; 2 µM,0.174
same,viability,[4]; 0.0032 µM,0.877
same,viability,[4]; 0.016 µM,0.847
same,viability,[4]; 0.08 µM,0.477
same,viability,[4]; 0.4 µM,0.574
same,viability,[4]; 2 µM,0.432
same,viability,[5]; 0.0032 µM,0.96
same,viability,[5]; 0.016 µM,1.01
same,viability,[5]; 0.08 µM,0.566
same,viability,[5]; 0.4 µM,0.434
same,viability,[5]; 2 µM,0.389
same,viability,[6]; 0.0032 µM,0.837
same,viability,[6]; 0.016 µM,0.691
same,viability,[6]; 0.08 µM,0.333
same,viability,[6]; 0.4 µM,0.292
same,viability,[6]; 2 µM,0.302
same,viability,[7]; 0.0032 µM,0.919
same,viability,[7]; 0.016 µM,1.02
same,viability,[7]; 0.08 µM,0.486
same,viability,[7]; 0.4 µM,0.422
same,viability,[7]; 2 µM,0.38
same,viability,[8]; 0.0032 µM,0.868
same,viability,[8]; 0.016 µM,0.943
same,viability,[8]; 0.08 µM,0.705
same,viability,[8]; 0.4 µM,0.781
same,viability,[8]; 2 µM,0.757
same,viability,[9]; 0.0032 µM,0.987
same,viability,[9]; 0.016 µM,1.1
same,viability,[9]; 0.08 µM,0.811
same,viability,[9]; 0.4 µM,0.585
same,viability,[9]; 2 µM,0.395
same,viability,[10]; 0.0032 µM,1.04
same,viability,[10]; 0.016 µM,1.44
same,viability,[10]; 0.08 µM,0.814
same,viability,[10]; 0.4 µM,0.497
same,viability,[10]; 2 µM,0.419
same,viability,[11]; 0.0032 µM,0.9
same,viability,[11]; 0.016 µM,1.27
same,viability,[11]; 0.08 µM,0.447
same,viability,[11]; 0.4 µM,0.1
same,viability,[11]; 2 µM,0.0867
same,viability,[13]; 0.0032 µM,1.05
same,viability,[13]; 0.016 µM,1.08
same,viability,[13]; 0.08 µM,0.311
same,viability,[13]; 0.4 µM,0.0842
same,viability,[13]; 2 µM,0.0764
same,viability,[14]; 0.0032 µM,1.1
same,viability,[14]; 0.016 µM,1.06
same,viability,[14]; 0.08 µM,1.06
same,viability,[14]; 0.4 µM,0.989
same,viability,[14]; 2 µM,0.993
same,viability,[15]; 0.0032 µM,1.56
same,viability,[15]; 0.016 µM,1.32
same,viability,[15]; 0.08 µM,1.42
same,viability,[15]; 0.4 µM,0.756
same,viability,[15]; 2 µM,0.792
same,viability,[16]; 0.0032 µM,1.15
same,viability,[16]; 0.016 µM,0.852
same,viability,[16]; 0.08 µM,0.686
same,viability,[16]; 0.4 µM,0.568
same,viability,[16]; 2 µM,0.648
same,viability,[17]; 0.0032 µM,0.872
same,viability,[17]; 0.016 µM,0.888
same,viability,[17]; 0.08 µM,0.555
same,viability,[17]; 0.4 µM,0.381
same,viability,[17]; 2 µM,0.322
same,viability,[18]; 0.0032 µM,0.973
same,viability,[18]; 0.016 µM,1.02
same,viability,[18]; 0.08 µM,0.657
same,viability,[18]; 0.4 µM,0.139
same,viability,[18]; 2 µM,0.15
same,viability,[19]; 0.0032 µM,0.788
same,viability,[19]; 0.016 µM,0.312
same,viability,[19]; 0.08 µM,0.124
same,viability,[19]; 0.4 µM,0.213
same,viability,[19]; 2 µM,0.239
